Data from patent publication US7629318B2, “Immunosuppressant compounds, methods and uses related thereto” (priority 2002, dated 2009).
pIC50: −log10 of the molar value. Where two headings read alike, the source gives them in different places. Numbered stars: 1 amine (or outer) side, 2 acyl side, 3 side chain; on linkers, the order of the positions; unused ones are H or OH. Square brackets hold non-standard residues; d marks the D form. Peptide text beside a SMILES is read from it. * marks the point of attachment. ξ: configuration not given here. Gly(1-amidinopiperidin-4-yl) = N=C(N)N1CCC([C@H](N)C(=O)O)CC1; X1 = CC(C)c1oc([C@H](CO)N[*:1])nc1C(=O)[*:2]; Pro(3R-Ph) = O=C(O)[C@H]1NCC[C@@H]1c1ccccc1; Tic = O=C(O)[C@@H]1Cc2ccccc2CN1; Cha = N[C@@H](CC1CCCCC1)C(=O)O; NMe(benzyl) = CN(Cc1ccccc1)*; ξDisc = O=C(O)C1NCc2ccccc21; Nle = CCCC[C@H](N)C(=O)O

Assays:
[1] = biological target: T1, Priess (DR4Dw4: DRA1*0101 DRB1*0401) cells (Homo sapiens, UniProt P01903+P01911, A100K/A169T/F76Y/I96L/K127E/L162R/M171V/N62H/P40V/Q125Y/R42H/S133A/S149N/S66Y/V115G/V209L/W38E); test: Competitive binding to MHC II proteins expressed on Priess cells; assay type: cell-based
T1 construct: MHC II Proteins Expressed on PRIESS and LG2 Cells; endogenous in cells; host or cells: Priess cells
How it was run: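 LG2 or Priess cells incubated 4 h at 37° C, 6% CO2 in 1% FCS with 10-fold compound dilutions (series 16 nM-1615 μM) and biotinylated-detectable indicator peptide (16 μM solution added). Lysates captured 2 h at 4° C; bound peptide detected via europium-streptavidin time-resolved fluorescence (ex 340, em 613 nm).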

[2] = Stability of compounds in rat blood plasma; assay type: in vitro ADME
How it was run: (§1)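 Compounds at 5 μM final in rat, mouse or human plasma, incubated at 37 °C and sampled at 0, 6 and 24 h. Proteins precipitated with acetonitrile and the supernatant dried and reconstituted in 50% acetonitrile/0.1% TFA. PBS controls run for unstable compounds.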

[3] = Stability of compounds in human blood plasma; assay type: in vitro ADME
How it was run: as §1

[4] = biological target: Cathepsin D (EC 3.4.23.5 from bovine spleen) (Bos taurus, UniProt P80209)
[5] = biological target: DR4Dw4 (DRA1*0101 DRB1*0401) (Homo sapiens, UniProt P01903+P01911, A100K/A169T/F76Y/I96L/K127E/L162R/M171V/N62H/P40V/Q125Y/R42H/S133A/S149N/S66Y/V115G/V209L/W38E); test: Competitive binding to MHC-II protein DR4Dw4
How it was run: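 Each MHC-II allele incubated with compound 16 hours at room temperature in duplicate; controls lacked compound, or both compound and MHC-II. Complexes captured 2 h at 4 °C, bound biotinylated peptide detected via europium-streptavidin and DELFIA enhancement, time-resolved fluorescence read at ex 340/em 613 (615) nm.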

[6] = system: T-cell proliferation, DR14-LN; details: for Immunsupressive assays DR14-LN (Max) % Inhibition: maximal inhibition; for pIC50: read-out: Immunsupressive assays DR14-LN (IC50)

Structure (SMILES) | pIC50 [1] | binding to MHC class II protein expressed on the surface of Priess cells ([1]; compared to the Arg-containing equivalent) | Stability (Arbitrary units) Rat 6 h [2] [Arbitrary units] | Stability (Arbitrary units) Rat 24 h [2] [Arbitrary units] | Stability (Arbitrary units) Human 6 h [3] [Arbitrary units] | Stability (Arbitrary units) Human 24 h [3] [Arbitrary units] | Stability (Arbitrary units) Cath D 4 h [4] [Arbitrary units] | pIC50 [5] | Immunsupressive assays DR14-LN (Max) % Inhibition [6] [%] | pIC50 [6] | Stability (Arbitrary units) Rat 24 h ([2]; rat plasma, 24 h) [Arbitrary units]
CCCC[C@H](NC(=O)[C@@H]1Cc2ccccc2CN1C(=O)[C@@H](NC(=O)[C@H](CC1CCCCC1)NC(C)=O)C1CCN(C(=N)N)CC1)C(=O)N(C)Cc1ccccc1 [Compound P74, Ac-Cha-Gpg-Tic-Nle-N(Me)Bn] (Ac-[Cha][Gly(1-amidinopiperidin-4-yl)][Tic][Nle]-{NMe(benzyl)}) | 5.04 | Improved binding | 91 | 71 | 114 | 125 | 104 | 5.47 | 97 | 4.85 | –
CSCC[C@H](NC(=O)[C@@H]1Cc2ccccc2CN1C(=O)[C@@H](NC(=O)[C@H](CC1CCCCC1)NC(C)=O)C1CCN(C(=N)N)CC1)C(=O)N1CC[C@H](c2ccccc2)[C@H]1C(=O)N[C@@H](CO)c1nc(C(=O)N(C)C)c(C(C)C)o1 [Compound P60, Ac-Cha-Gpg-Tic-Met-βPhPro-[S(oxaz)L]-NMe2] (Ac-[Cha][Gly(1-amidinopiperidin-4-yl)][Tic]M[Pro(3R-Ph)][X1]-NMe2) | 5.68 | – | 134 | 124 | – | 120 | 108 | 6.64 | 98 | 4.39 | –
CCCC[C@H](NC(=O)C1c2ccccc2CN1C(=O)[C@@H](NC(=O)[C@H](CC1CCCCC1)NC(C)=O)C1CCN(C(=N)N)CC1)C(=O)N1CC[C@H](c2ccccc2)[C@H]1C(=O)N[C@@H](CO)c1nc(C(=O)N(C)C)c(C(C)C)o1 (stereo partly drawn) [Compound P81-1] (Ac-[Cha][Gly(1-amidinopiperidin-4-yl)][ξDisc][Nle][Pro(3R-Ph)][X1]-NMe2) | 5.47 | – | 151 | 112 | 151 | 162 | 106 | 6.59 | – | 4.37 | –
CSCC[C@H](NC(=O)C1c2ccccc2CN1C(=O)[C@@H](NC(=O)[C@H](CC1CCCCC1)NC(C)=O)C1CCN(C(=N)N)CC1)C(=O)N1CC[C@H](c2ccccc2)[C@H]1C(=O)N[C@@H](CO)c1nc(C(=O)N(C)C)c(C(C)C)o1 (stereo partly drawn) [Compound P41-1, Ac-Cha-Gpg-Disc-Met-βPhPro-[S(oxaz)L]-NMe2] (Ac-[Cha][Gly(1-amidinopiperidin-4-yl)][ξDisc]M[Pro(3R-Ph)][X1]-NMe2) | 5.43 | – | 91 | – | 59 | 115 | 103 | 6.70 | 98 | 4.60 | 103
CSCC[C@H](NC(=O)[C@@H]1Cc2ccccc2CN1C(=O)[C@H](CCCNC(=N)N)NC(=O)[C@H](CC1CCCCC1)NC(C)=O)C(=O)N1CC[C@H](c2ccccc2)[C@H]1C(N)=O [Compound P31, Ac-Cha-Arg-Tic-Met-βPhPro-NH2] (Ac-[Cha]R[Tic]M[Pro(3R-Ph)]-NH2) | 5.43 | – | 42 | 5 | 93 | 86 | 95 | 6.55 | 89 | 4.01 | –
